Converted amounts (≈) assume the structure as drawn. Like-named read-outs stand apart in the source and are kept apart here.
What was measured:
[1] = tested on: C. glabrata 1046695; assay: Checkerboard broth microdilution (CLSI); format: cell-based; settings: isolate 1046695; for MIC: single agent
Protocol: (§1) Isolates were tested against varying concentrations of amphotericin B and C2′epiAmB (range, 0.06 to 4 mg/L) and combined with fluconazole (range, 0.12 to 128 mg/L) or ketoconazole (range 0.008 to 8 mg/L) or voriconazole (range, 0.004 to 4 mg/L) using a checkerboard grid design following the Clinical and Laboratory Standards Institute (CLSI) broth microdilution method (M23Ed5).

[2] = tested on: C. tropicalis 1046709; assay: Checkerboard broth microdilution (CLSI); format: cell-based; settings: isolate 1046709
Protocol: as §1

[3] = tested on: F. oxysporum SC 1087597; assay: Checkerboard broth microdilution (CLSI); format: cell-based; settings: isolate 1087597
Protocol: as §1

[4] = tested on: C. parapsilosis ATCC 22019; assay: Checkerboard broth microdilution (CLSI); format: cell-based; settings: isolate ATCC 22019
Protocol: as §1

[5] = tested on: C. auris 1081160; assay: Checkerboard broth microdilution (CLSI); format: cell-based; settings: isolate 1081160; for MIC: single agent
Protocol: as §1

[6] = tested on: Candida and Aspergillus clinical isolates; assay: In vitro antifungal activity against clinical isolates (Evotec); format: cell-based; settings: many Candida and several Aspergillus strains
Excerpt: (§2) In vitro antifungal activity of C2′ epiAmB was compared with that of AmB against an extensive series of Candida and Aspergillus clinical isolates (FIG. 6A) at Evotec (Oxfordshire, UK). […] C2′epiAmB was also sent to the US national Fungus Testing Laboratory at UT-San Antonio for antifungal testing against an extended panel of especially challenging 40 Aspergillus clinical isolates, including azole-resistant A. fumigatus, A. flavus, and A. terreus (FIG. 6B).

[7] = rat, in vivo
[8] = tested on: Candida albicans SN250; assay: MIC against Candida albicans SN250; format: cell-based
[9] = tested on: C. albicans; assay: Murine model of invasive candidiasis; format: in vivo, mice
Protocol: Andes, D. et al., Antimicrobial agents and chemotherapy 2001, 45 (3), 922-6. In fact, the PD parameter that best correlates with outcome is Cmax-/MIC. The same was subsequently observed in a pulmonary model of invasive aspergillosis. Wiederhold, N. P. et al., Antimicrobial agents and chemotherapy 2006, 50 (2), 469-73.
A clinical isolate of C. albicans (SN250) was grown and quantified on SDA. For 24 h before infection, the organism was subcultured at 35° C. on SDA slants. A 106CFU/ml inoculum was prepared by placing six fungal colonies into 5 ml of sterile, depyrogenated normal (0.9%) saline warmed to 35° C. Six week-old ICR/Swiss specific-pathogen-free female mice were obtained from Harlan Sprague Dawley (Madison, Wis.). The mice were weighed (23-27 g) and disseminated candidiasis was induced via tail vein injection of 100 μl of inoculum. AmB and C2′ epiAmB were reconstituted in their deoxycholate form with 1.0 ml of saline5% dextrose. Each animal in the treatment group was given a single 200-μl intravenous (IV) injection of reconstituted AmB and C2′epiAmB 2 h after infection. Doses were calculated in terms of mg of compound per kg of body weight. At 24 h after infection, three animals per experimental condition were killed by CO2 asphyxiation. The kidneys from each animal were removed and homogenized. The homogenate was diluted serially tenfold with […] and plated on SDA. […]

[10] = tested on: primary hREC; assay: Toxicity to primary hREC; format: cell-based, human
Excerpt: (§3) This key discovery opened a path to the rational development of a non-toxic AmB variant. To probe its predicted role in sterol binding, the hydroxyl group was synthetically deleted at the C2′ position on the mycosamine appendage.
(§4) In each case, C2′epiAmB is non-toxic to human red blood cells, primary hREC, mice, and rats up to the highest dose tested.

[11] = Intravenous toxicity in mice; settings: up to the highest dose tested
[12] = tested on: A. fumigatus ATC204305; assay: In vitro antifungal activity (Evotec); format: cell-based; settings: strain ATC204305
Excerpt: as §2

[13] = tested on: A. fumigatus AF293; assay: In vitro antifungal activity (Evotec); format: cell-based; settings: strain AF293
Excerpt: as §2

[14] = tested on: A. fumigatus A1163; assay: In vitro antifungal activity (Evotec); format: cell-based; settings: strain A1163
Excerpt: as §2

[15] = tested on: A. fumigatus AF91; assay: In vitro antifungal activity (Evotec); format: cell-based; settings: strain AF91
Excerpt: as §2

[16] = tested on: 40 Aspergillus clinical isolates, including azole-resistant A. fumigatus, A. flavus, and A. terreus; assay: Antifungal testing, Fungus Testing Laboratory UT-San Antonio; format: cell-based
Excerpt: as §2

[17] = tested on: yeast cells; assay: Antifungal activity after ergosterol pre-complexation of the sponge; format: cell-based; settings: sponge pre-complexed with ergosterol
Excerpt: Anderson, T. M. et al., Nat Chem Biol 2014, 10 (5), 400-6. […] Davis, S. A., et al., Nat Chem Biol 2015, 11 (7), 481-7. To test whether C2′epiAmB primarily kills cells via the same sterol sponge mechanism, the C2′epiAmB sponge was similarly pre-complexed with ergosterol. […] Thus, C2′epiAmB similarly kills yeast primarily via sterol binding, and, by extension, the new compounds targeted in this application are expected to have a similar barrier to fungal resistance that has been observed for the past 50+years with AmB.

[18] = tested on: human red blood cells; assay: Toxicity to human red blood cells; format: cell-based
Excerpt: as §3, §4

C[C@@H]1[C@H](O)[C@@H](C)/C=C/C=C/C=C/C=C/C=C/C=C/C=C/[C@H](OC2O[C@H](C)[C@@H](O)[C@H](N)[C@H]2O)CC2O[C@](O)(C[C@@H](O)C[C@@H](O)[C@H](O)CC[C@@H](O)C[C@@H](O)CC(=O)O[C@H]1C)C[C@H](O)[C@H]2C(=O)O (stereo partly drawn) [C2′epiAmB, C2′epi amphotericin B]
MIC ([1]; Nakaseomyces glabratus, read-out: MIC): 1 mg/L
MIC [1]: 2 mg/L
MIC when added 1 log2 unit lower of azoles' MIC ([1]; with fluconazole): 2 mg/L
MIC when added 1 log2 unit lower of azoles' MIC ([1]; with ketoconazole): 1 mg/L
MIC when added 1 log2 unit lower of azoles' MIC ([1]; with voriconazole): 1 mg/L
MIC ([2]; Candida tropicalis, single agent): 1 mg/L
MIC when added 1 log2 unit lower of azoles' MIC ([2]; with fluconazole): 1 mg/L
MIC when added 1 log2 unit lower of azoles' MIC ([2]; with ketoconazole): 1 mg/L
MIC when added 1 log2 unit lower of azoles' MIC ([2]; with voriconazole): 1 mg/L
MIC ([3]; Fusarium oxysporum, single agent): > 4 mg/L
MIC when added 1 log2 unit lower of azoles' MIC ([3]; with ketoconazole): 0.06 mg/L
MIC when added 1 log2 unit lower of azoles' MIC ([3]; with voriconazole): >4 mg/L
MIC ([4]; Lodderomyces parapsilosis, ATCC22019, single agent, read-out: MIC): 1 mg/L
MIC ([4]; single agent): 2 mg/L
MIC when added 1 log2 unit lower of azoles' MIC ([4]; with fluconazole): 1 mg/L
MIC when added 1 log2 unit lower of azoles' MIC ([4]; with ketoconazole): 0.5 mg/L
MIC when added 1 log2 unit lower of azoles' MIC ([4]; with voriconazole): 1 mg/L
MIC ([5]; Candidozyma auris, read-out: MIC): 2 mg/L
MIC [5]: 4 mg/L
MIC when added 1 log2 unit lower of azoles' MIC ([5]; with fluconazole): 0.06 mg/L
MIC when added 1 log2 unit lower of azoles' MIC ([5]; with ketoconazole): 2 mg/L
MIC when added 1 log2 unit lower of azoles' MIC ([5]; with voriconazole): 2 mg/L
in vitro antifungal activity [6]: good activity
toxicity in rats [7]: non-toxic
MIC [8]: 0.5 µM (≈ 0.462 µg/mL)
fungal burden ([9]; 16 mg/kg dose): outstanding reductions in fungal burden
efficacy ([9]; neutropenic ICR/Swiss mice, deoxycholate complex, single injection 1, 4, 8, or 16 mg/kg): dose-dependent efficacy
toxicity to primary hREC [10]: non-toxic
toxicity in mice [11]: non-toxic
less potent than AmB [12]: 4 fold
less potent than AmB [13]: 4 fold
less potent than AmB [14]: 4 fold
less potent than AmB [15]: > 32 times
less potent than AmB, average ([16]; average across all 40 strains): 5.6 fold
less potent than AmB ([16]; range over 40 Aspergillus clinical isolates): 2-16 times
change of potency upon ergosterol pre-complexation [17]: same reduction in potency
toxicity to human red blood cells [18]: non-toxic

Source: US20220370486A1, “COMBINATION TREATMENT OF SYSTEMIC FUNGAL INFECTIONS” (The Board of Trustees of the University of Illinois, priority 2019, published 2022)
